Laboratory results from patent US8367659B2, “Oxazinyl isoflavonoid compounds, medicaments and use” (Marshall Edwards, Inc., priority 2007, dated 2013).

Key:
[1] = system: NO synthesis in RAW 264.7 murine macrophages; test: LPS-induced NO synthesis in RAW 264.7 murine macrophages (Griess); type: cell-based, mouse; conditions: 10 μM; relative to vehicle alone; FIG. 6
Description: The mouse macrophage cell line RAW 264.7 was cultured in DMEM supplemented with foetal calf serum (FCS), […] glutamine and 50 U/ml penicillin/streptomycin. Cells were treated with either test compound (in 0.025% DMSO) or vehicle alone, and added one hour before 50 ng/ml LPS. After incubation for 24 h, culture media was collected for PGE2 or TXB2 measurement by ELISA (Cayman Chemical), and TNFα measurement using an ELISA (Becton Dickinson). Nitrite concentration is a quantitative indicator of NO production and was determined by the Griess Reaction. Briefly, 100 μL of Griess reagent was added to 50 μL of each supernatant in duplicate. The absorbance at 550 nm was measured (Molecular Devices, SpectraMax 250 microplate spectrophotometer, CA, USA), and nitrite concentrations were determined against a standard curve of sodium nitrite. The percentage nitrite inhibition was calculated as: [100−(nitrite concentration of sample/nitrite of vehicle control LPS cells)×100]. Results Test compounds were examined a concentration of 10 μM. […] Consequently, to assess the effect of test compounds on various analytes, cell viability was taken into consideration with the use of the formula: Actual effect of test compound=measured effect−(effect on cell viability×measured effect)

[2] = system: Rabbit kidney (RK-13) cells; test: Toxicity to normal cells, rabbit kidney (RK-13) cells; type: cell-based; conditions: Oryctolagus cuniculus, normal, non-transformed cells, read-out: IC50 μM, RK Rabbit Kidney
Description: (§1) IC50 values were determined for each cell line. Cells were seeded in 96-well plates at an appropriate cell density as determined from growth kinetics analysis and cultured for 5 days in the absence and presence of the test compounds. Cell proliferation was assessed after the addition of 20 μl of 3-4,5 dimethylthiazol-2,5-diphenyl tetrazolium bromide (MTT, 2.5 mg/ml in PBS, Sigma) for 3-4 hrs at 37° C. according to manufacturer's instructions. IC50 values were calculated from semi-log plots of % of control proliferation on the y-axis against log dose on the x-axis.
(§2) The neonatal foreskin fibroblasts (NFF) were a gift from Dr. Peter Parsons (Queensland Institute of Medical Research). Rabbit kidney (RK-13) cells were obtained from Miller Whalley (Macquarie University). Both cell lines were cultured in RPMI supplemented with 10% FCS(CSL, Australia), penicillin (100 U/ml), streptomycin ([…]), L-glutamine (2 mM) and sodium bicarbonate (1.2 g/L), and cultured at 37° C. in a humidified atmosphere of 5% CO2. IC50 values were determined as described above.

HPAC = test: Anti-cancer activity, HPAC pancreatic cancer cells (MTT); type: cell-based; conditions: Homo sapiens, 120 h, 5 days
MM200 = test: Anti-cancer activity, MM200 melanoma cells (MTT); type: cell-based; conditions: for IC50: 120 h, 5 days, MTT
[3] = Free radical scavenging with DPPH; conditions: DPPH, 20 minutes, absorbance 517 nm; Table 4; read-out: Free radical scavenging ability EC50
Description: The antioxidant (free radical trapping) activity of test compounds was assessed using the stable free radical compound 2,2-diphenyl-1-picrylhydrazyl (DPPH). A stock solution of DPPH was prepared at a concentration of […] in ethanol and mixed for 10 minutes prior to use. Test compounds at a concentration of 100 μM were reacted with DPPH for, 20 minutes, alter which time the absorbance at 517 nm was determined. Initial screening of was done at 100 μM. The change in absorbance at 517 nm was compared to a reagent blank (DPPH with ethanol alone). […] The IC50 values were estimated as the concentration of test compound that caused a 0.6 change in absorbance (with 1.2 absorbance units representing total scavenging of the DPPH radical).
The antioxidant (free radical trapping) activity of test compounds was assessed using the stable free radical compound 2,2-diphenyl-1-picrylhydrazyl (DPPH). A stock solution of DPPH was prepared […] in ethanol and mixed for 10 minutes prior to use. Initial screening of test compound at a concentration of 100 μM was reacted with DPPH for 20 minutes, after which time the absorbance at 517 nm was determined. The change in absorbance was compared to a reagent blank (DPPH with ethanol alone). […] The IC50 value was estimated as the concentration of test compound that causes a 0.6 change in absorbance (with 1.2 absorbance units representing total scavenging of the DPPH radical).

CP70 = test: Anti-cancer activity, CP70 ovarian cancer cells (MTT); type: cell-based; conditions: 120 h, 5 days
[4] = system: neonatal foreskin fibroblasts (NFF); test: Toxicity to normal cells, neonatal foreskin fibroblasts; type: cell-based; conditions: Fibroblast; normal, non-transformed cells; read-out: IC50 μM, NFF Fibroblast
Description: as §1, §2

[5] = system: human umbilical vein smooth muscle cells (HUVSMC); test: Proliferation of human umbilical vein smooth muscle cells (MTT); type: cell-based; conditions: 10 μM; 10% FCS, 5 days; FIG. 8
Description: The effect of test compounds on human umbilical vein smooth muscle cells (HUVSMC) was examined. Cells were seeded into 96 well plates at a low seeding rate of 1.6×10^3 cells per well, and allowed to attach for 24 hours. The cells were then washed twice with medium without FCS and incubated in medium without FCS for 20 hours to serum starve them. Analogue was prepared in medium without FCS at 20 μM and added to the plates and incubated for one hour. Final analogue concentration was therefore 10 μM. The cells were then stimulated by adding medium +20% FCS, to give a final FCS concentration of 10%. The cells were incubated until the control cells i.e. those with FCS and no compound, were just confluent (5 days). An MTT assay was performed, and difference in absorbance in analogue treated cells from the control was calculated using the formula: test/control*100−100. Results
The effect of test compounds on human umbilical vein smooth muscle cells (HUVSMC), was examined. Cells, tissue explants from a neonate (HRI—passage 2), were seeded into 96 well plates at 1×10^3 cells per well, and allowed to attach for 24 hours. They were then washed twice and incubated in medium without foetal calf serum (FCS) for 24-48 hours to serum-starve them. Test compounds were prepared in medium without FCS and added to the plates and incubated for one hour. Medium with FCS was added to give a final concentration of 10% and the plates incubated for 4-5 days until the controls were just confluent.

[6] = molecular target: T1, GAL4-PPARγ fusion protein (Homo sapiens, UniProt P37231); test: PPARγ activity in transfected HEK293 cells (beta-lactamase reporter); type: cell-based; conditions: FIG. 13: 1 μM
T1 construct: host or cells: HEK293 (human embryonic kidney), stably transfected
T1 sequence (P37231 238-503 limits assumed): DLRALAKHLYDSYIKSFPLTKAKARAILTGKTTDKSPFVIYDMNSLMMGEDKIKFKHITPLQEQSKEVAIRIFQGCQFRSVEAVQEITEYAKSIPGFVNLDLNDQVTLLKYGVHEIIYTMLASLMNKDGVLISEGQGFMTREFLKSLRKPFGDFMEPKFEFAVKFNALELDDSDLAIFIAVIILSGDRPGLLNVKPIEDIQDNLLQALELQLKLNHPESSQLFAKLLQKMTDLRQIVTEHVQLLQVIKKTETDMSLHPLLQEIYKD
T1 sequence (P04386 1-147 partner limits assumed): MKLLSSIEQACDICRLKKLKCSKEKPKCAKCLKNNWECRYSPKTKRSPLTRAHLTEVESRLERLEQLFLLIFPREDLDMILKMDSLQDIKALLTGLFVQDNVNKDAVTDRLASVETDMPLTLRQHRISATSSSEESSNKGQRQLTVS
Description: Human HEK293 cells, stably transfected with the PPARγ ligand binding domain fused with the DNA binding domain of the GAL4 protein (GAL4-PPARγ fusion protein), produce beta-lactamase when incubated with PPARγ ligands. Transfected human kidney embryonic cells (Invitrogen Inc., Carlsbad, Calif.) were seeded onto matrigel in 96-well plates and allowed to attach overnight. The following day, vehicle alone (DMSO) or test compound at 1, 5 and 10 μM was added at varying concentrations to cells and incubated for 16-18 hours. Cells were then loaded with a FRET-based fluorescent substrate to assess beta-lactamase activity. Cells were protected from light, and incubated at room temperature for 2 h. Plates were read on a fluorescence plate reader with an excitation wavelength of 409 nm and emission wavelengths of 460 nm and 530 nm. Results were expressed as a ratio of these two wavelengths after the background (cell-free control wells) had been subtracted. PPARγ activity was thus determined by measuring beta-lactamase activity as assessed by a fluorescent product to substrate ratio.

cancer cell lines = test: Anti-cancer activity, cancer cell lines tested as a group (MTT); type: cell-based; conditions: CP70, HPAC and MM200
[7] = system: TXB2 synthesis in RAW 264.7 murine macrophages; test: LPS-induced TXB2 synthesis in RAW 264.7 murine macrophages; type: cell-based, mouse; conditions: 10 μM; relative to vehicle alone; FIG. 4
Description: (§3) The mouse macrophage cell line RAW 264.7 was cultured in DMEM supplemented with foetal calf serum (FCS), […] glutamine and 50 U/ml penicillin/streptomycin. Cells were treated with either test compound (in 0.025% DMSO) or vehicle alone, and added one hour before 50 ng/ml LPS. After incubation for 24 h, culture media was collected for PGE2 or TXB2 measurement by ELISA (Cayman Chemical), and TNFα measurement using an ELISA (Becton Dickinson). Test compounds were examined a concentration of 10 μM. […] Consequently, to assess the effect of test compounds on various analytes, cell viability was taken into consideration with the use of the formula: Actual effect of test compound=measured effect−(effect on cell viability×measured effect)

[8] = system: PGE2 synthesis in RAW 264.7 murine macrophages; test: LPS-induced PGE2 synthesis in RAW 264.7 murine macrophages; type: cell-based, mouse; conditions: 10 μM; relative to vehicle alone; FIG. 3
Description: as §3

Row | Structure (SMILES) | mean change of LPS-induced NO synthesis [1] | IC50 [2] [µM] | IC50 (HPAC) [µM] | toxicity to the MM200 melanoma cell line (MM200) | IC50 (MM200) [µM] | EC50 [3] [µM] | IC50 (CP70) [µM] | IC50 [4] [µM] | effect on proliferation of HUVSMCs induced by FCS [5] | PPARγ activation, increase in beta-lactamase activity over media only control [6] | activity against CP70, HPAC and MM200 cell lines (cancer cell lines) | mean change of LPS-induced TXB2 synthesis [7] | mean change of LPS-induced PGE2 synthesis [8]
1 | CCCN1COc2cc3c(cc2C1)C=C(c1ccc(O)cc1)CO3 [Compound 3, 4-(3-Propyl-2,3,4,8-tetrahydrochromeno[6,7-e][1,3]oxazin-7-yl)phenol] | greatest inhibition | 4.8 | 32.2 | selectively toxic | 8.9 ± 0.1 | 20 | 30.7 ± 22 | 56.2 ± 12.6 |  |  |  |  | 
2 | Oc1ccc(C2=Cc3cc4c(cc3OC2)OCN(c2ccccc2)C4)cc1 [Compound 7, 4-(3-Phenyl-2,3,4,8-tetrahydrochromeno[6,7-e][1,3]oxazin-7-yl)phenol] | greatest inhibition | 56.6 | 48.8 |  | 36.3 ± 6 | 22.5 | 9.98 ± 0.5 | 48.8 ± 12.2 | significantly inhibited the proliferation | PPARγ agonist activity |  |  | 
3 | COc1ccc(C2=C(c3ccc(O)cc3)COc3cc4c(cc32)CN(Cc2ccc(Cl)cc2)CO4)cc1 [Compound 24, 4-(3-(4-Chlorobenzyl)-6-(4-methoxyphenyl)-2,3,4,8-tetrahydrochromeno[6,7-e][1,3]oxazin-7-yl)-phenol] | greatest inhibition |  | 6.83 |  | 14.6 | 24 | 8.6 |  |  |  | active | greatest inhibition | greatest inhibition
